Test results reported in US9763445B2, “Safened herbicidal compositions comprising a pyridine carboxylic acid herbicide” (Dow AgroSciences, LLC, priority 2014, dated 2017).

What was measured:
pigweed (AMARE) = test: Postemergence greenhouse trial, % visual injury on pigweed; type: in vivo, Amaranthus retroflexus; conditions: AMARE; for % visual injury, Ob: CQC-m 0 g/ha
Protocol: (§1) Seeds of the desired test plant species were planted in Sun Gro MetroMix® 306 planting mixture, which typically has a pH of 6.0 to 6.8 and an organic matter content of about 30 percent, in plastic pots with a surface area of 103.2 square centimeters (cm^2). When required to ensure good germination and healthy plants, a fungicide treatment and/or other chemical or physical treatment was applied. The plants were grown for 7-36 days (d) in a greenhouse with an approximate 14-hour (h) photoperiod which was maintained at about 23° C. during the day and 22° C. during the night. Nutrients and water were added on a regular basis and supplemental lighting was provided with overhead metal halide 1000-Watt lamps as necessary. The plants were employed for testing when they reached the second or third true leaf stage.
(§2) Weighed amounts of technical material were dissolved in a volume of 97:3 volume per volume (v/v) acetone/dimethyl sulfoxide (DMSO) to stock solutions. […] The concentrated stock solutions were diluted with an aqueous mixture of 1.5% v/v of Agri-dex crop oil concentrate to provide the appropriate application rates. Compound requirements are based upon a 12 milliliter (mL) application volume at a rate of 187 liters per hectare (L/ha). Stocks solutions of the safeners were prepared following the same procedure. Spray solutions of the safeners and experimental compound mixtures were prepared by adding the stock solutions to the appropriate amount of dilution solution to form a 12 mL spray solution in two-way combinations. Formulated compounds were applied to the plant material with an overhead Mandel track sprayer equipped with 8002E nozzles calibrated to deliver 187 L/ha over an application area of 0.503 square meters (m^2) at a spray height of 18 inches (43 centimeters (cm)) above average plant canopy. Control plants were sprayed in the same manner with the solvent blank. All herbicide application (component a) rates are in g ae/ha and all safener (component b) rates are in g ai/ha.
(§3) The treated plants and control plants were placed in a greenhouse as described above and watered by sub-irrigation to prevent wash-off of the test compounds. After 20-22 d, the condition of the test plants as compared with that of the control plants was determined visually and scored on a scale of 0 to 100 percent where 0 corresponds to no injury and 100 corresponds to complete kill. The condition of the test plants was compared with that of the control plants as determined visually and scored on a scale of 0 to 100 percent, where 0 corresponds to no injury and 100 corresponds to complete kill. Colby's equation was used to determine the herbicidal effects expected from the mixtures.
(§4) The safener cloquintocet-mexyl was combined with compound 1, compound 2, compound 4, compound 5, and compound 6, and applied to corn/maize (ZEAMX) and spring wheat (TRZAS) and the phytotoxicity of the herbicidal compositions was measured. In addition, the efficacy of the herbicidal composition on velvetleaf (ABUTH, Abutilon theophrasti), pigweed (AMARE, Amaranthus retroflexus), winter rape (BRSNW, Brassica napus), lambsquarters (CHEAL, Chenopodium album), thistle (CIRAR, Cirsium arvense), nutsedge (CYPES, Cyperus esculentus), poinsettia (EPHHL, Euphorbia heterophylla), wild buckwheat (POLCO, Polygonum convolvulus), giant foxtail (SETFA, Setaria faberi), and chickweed (STEME, Stellaria media) was evaluated. […]
The safener cloquintocet-acid and a number of agriculturally acceptable esters and salts (-mexyl, -dimethylammonium salt and -triethylammonium salt) were combined in varying ratios with compound 1 and applied to spring wheat (TRZAS), winter wheat (TRZAW), and spring barley (HORVS), and the phytotoxicity of the herbicidal compositions was measured. […]

Russian thistle (SASKR) = test: Postemergence greenhouse trial, % visual injury on Russian thistle; type: in vivo, Salsola kali; conditions: SASKR, CQC-m 0 g/ha
spring wheat (TRZAS) = test: Postemergence greenhouse trial, % visual injury on spring wheat; type: in vivo, Triticum aestivum; conditions: TRZAS, CQC-m 0 g/ha
Protocol: as §1, §2, §3
The safener cloquintocet-mexyl was combined with compound 1, compound 2, compound 4, compound 5, and compound 6, and applied to corn/maize (ZEAMX) and spring wheat (TRZAS) and the phytotoxicity of the herbicidal compositions was measured. In addition, the efficacy of the herbicidal composition on velvetleaf (ABUTH, Abutilon theophrasti), pigweed (AMARE, Amaranthus retroflexus), winter rape (BRSNW, Brassica napus), lambsquarters (CHEAL, Chenopodium album), thistle (CIRAR, Cirsium arvense), nutsedge (CYPES, Cyperus esculentus), poinsettia (EPHHL, Euphorbia heterophylla), wild buckwheat (POLCO, Polygonum convolvulus), giant foxtail (SETFA, Setaria faberi), and chickweed (STEME, Stellaria media) was evaluated.
(§5) The safener cloquintocet-mexyl was combined with compound 1, compound 2, compound 3, compound 7, compound 8, compound 9, compound 10, compound 11, compound 12, compound 13, compound 14, compound 15, compound 16, compound 17, compound 18, compound 19, and compound 20, and applied to spring wheat (TRZAS), winter wheat (TRZAW), and spring barley (HORVS) and the phytotoxicity of the herbicidal compositions was measured. […]

cleavers (GALAP) = test: Postemergence greenhouse trial, % visual injury on cleavers; type: in vivo, Galium aparine; conditions: CQC-m 0 g/ha
Protocol: as §1, §2, §3, §5

spring barley (HORVS) = test: Postemergence greenhouse trial, % visual injury on spring barley; type: in vivo, Hordeum vulgare; conditions: HORVS, CQC-m 0 g/ha
Protocol: as §1, §2, §3, §5

wild mustard (SINAR) = test: Postemergence greenhouse trial, % visual injury on wild mustard; type: in vivo, Sinapis arvensis; conditions: Brassica, post-emergence, SINAR, applied alone, read-out: % visual injury, Ob
Protocol: as §1, §2
as §3, with “mixtures. […]” for “mixtures.”

winter rape (BRSNW) = test: Postemergence greenhouse trial, % visual injury on winter rape; type: in vivo, Brassica napus; conditions: Brassica napus, post-emergence, BRSNW, applied alone, read-out: % visual injury, Ob
Protocol: as §1, §2, §3, §4

wild pansy (VIOTR) = test: Postemergence greenhouse trial, % visual injury on wild pansy; type: in vivo, Viola tricolor; conditions: VIOTR, applied alone
Protocol: as §1, §2
as §3, with “mixtures. […]” for “mixtures.”

kochia (KCHSC) = test: Postemergence greenhouse trial, % visual injury on kochia; type: in vivo, Kochia scoparia; conditions: Bassia scoparia, post-emergence, KCHSC, applied alone, read-out: % visual injury, Ob
Protocol: as §1, §2
as §3, with “mixtures. […]” for “mixtures.”

common poppy (PAPRH) = test: Postemergence greenhouse trial, % visual injury on common poppy; type: in vivo, Papaver rhoeas; conditions: Papaver rhoeas, post-emergence, PAPRH, applied alone, read-out: % visual injury, Ob
Protocol: as §1, §2
as §3, with “mixtures. […]” for “mixtures.”

## C=Cc1c(C(=O)OC)nc(-c2ccc3cc[nH]c3c2F)c(F)c1N [compound 14]
Pigweed (AMARE); compound 4.380 g/ha
  % visual injury, Ob: 10%
Pigweed (AMARE); compound 8.75 g/ha
  % visual injury, Ob: 10%
Pigweed (AMARE); compound 17.5 g/ha
  % visual injury, Ob: 20%
Russian thistle (SASKR); compound 4.380 g/ha
  % visual injury, Ob: 0%
Russian thistle (SASKR); compound 8.75 g/ha
  % visual injury, Ob: 10%
Russian thistle (SASKR); compound 17.5 g/ha
  % visual injury, Ob: 50%
Russian thistle (SASKR); compound 35 g/ha
  % visual injury, Ob: 60%
Russian thistle (SASKR); compound 70 g/ha
  % visual injury, Ob: 70%
Spring wheat (TRZAS); compound 4.380 g/ha
  % visual injury, Ob: 0%
Spring wheat (TRZAS); compound 8.75 g/ha
  % visual injury, Ob: 0%
Spring wheat (TRZAS); compound 17.5 g/ha
  % visual injury, Ob: 0%
Spring wheat (TRZAS); compound 35 g/ha
  % visual injury, Ob: 10%
Spring wheat (TRZAS); compound 70 g/ha
  % visual injury, Ob: 30%
Cleavers (GALAP); compound 4.380 g/ha
  % visual injury, Ob: 10%
Cleavers (GALAP); compound 8.75 g/ha
  % visual injury, Ob: 10%
Cleavers (GALAP); compound 17.5 g/ha
  % visual injury, Ob: 20%
Cleavers (GALAP); compound 35 g/ha
  % visual injury, Ob: 30%
Cleavers (GALAP); compound 70 g/ha
  % visual injury, Ob: 60%
Spring barley (HORVS); compound 4.380 g/ha
  % visual injury, Ob: 0%
Spring barley (HORVS); compound 8.75 g/ha
  % visual injury, Ob: 0%
Spring barley (HORVS); compound 17.5 g/ha
  % visual injury, Ob: 10%
Spring barley (HORVS); compound 35 g/ha
  % visual injury, Ob: 20%
Spring barley (HORVS); compound 70 g/ha
  % visual injury, Ob: 40%

## Nc1c(F)c(-c2ccc3cc[nH]c3c2)nc(C(=O)O)c1Cl [compound 16]
Pigweed (AMARE); Amaranthus retroflexus, post-emergence, 4.375 g/ha, applied alone, read-out: % visual injury, Ob
  pest or weed control at 4.375 g/ha: 70%
Pigweed (AMARE); Amaranthus retroflexus, post-emergence, 8.75 g/ha, applied alone, read-out: % visual injury, Ob
  pest or weed control at 8.75 g/ha: 80%
Pigweed (AMARE); Amaranthus retroflexus, post-emergence, 17.5 g/ha, applied alone, read-out: % visual injury, Ob
  pest or weed control at 17.5 g/ha: 85%
Pigweed (AMARE); Amaranthus retroflexus, post-emergence, 35 g/ha, applied alone, read-out: % visual injury, Ob
  pest or weed control at 35 g/ha: 100%
Pigweed (AMARE); Amaranthus retroflexus, post-emergence, 70 g/ha, applied alone, read-out: % visual injury, Ob
  pest or weed control at 70 g/ha: 100%
Wild mustard (SINAR); 4.375 g/ha
  pest or weed control at 4.375 g/ha: 90%
Wild mustard (SINAR); 8.75 g/ha
  pest or weed control at 8.75 g/ha: 93%
Wild mustard (SINAR); 17.5 g/ha
  pest or weed control at 17.5 g/ha: 95%
Wild mustard (SINAR); 35 g/ha
  pest or weed control at 35 g/ha: 100%
Wild mustard (SINAR); 70 g/ha
  pest or weed control at 70 g/ha: 100%
Winter rape (BRSNW); 4.375 g/ha
  plant injury at 4.375 g/ha: 30%
Winter rape (BRSNW); 8.75 g/ha
  plant injury at 8.75 g/ha: 40%
Winter rape (BRSNW); 17.5 g/ha
  plant injury at 17.5 g/ha: 65%
Winter rape (BRSNW); 35 g/ha
  plant injury at 35 g/ha: 70%
Winter rape (BRSNW); 70 g/ha
  plant injury at 70 g/ha: 90%
Wild pansy (VIOTR); 4.375 g/ha
  % visual injury, Ob: 10%
Wild pansy (VIOTR); 8.75 g/ha
  % visual injury, Ob: 10%
Wild pansy (VIOTR); 17.5 g/ha
  % visual injury, Ob: 20%
Wild pansy (VIOTR); 35 g/ha
  % visual injury, Ob: 30%
Wild pansy (VIOTR); 70 g/ha
  % visual injury, Ob: 40%
Kochia (KCHSC); 4.375 g/ha
  pest or weed control at 4.375 g/ha: 60%
Kochia (KCHSC); 8.75 g/ha
  pest or weed control at 8.75 g/ha: 70%
Kochia (KCHSC); 17.5 g/ha
  pest or weed control at 17.5 g/ha: 85%
Kochia (KCHSC); 35 g/ha
  pest or weed control at 35 g/ha: 90%
Kochia (KCHSC); 70 g/ha
  pest or weed control at 70 g/ha: 90%
Common poppy (PAPRH); 4.375 g/ha
  pest or weed control at 4.375 g/ha: 70%
Common poppy (PAPRH); 8.75 g/ha
  pest or weed control at 8.75 g/ha: 70%
Common poppy (PAPRH); 17.5 g/ha
  pest or weed control at 17.5 g/ha: 100%
Common poppy (PAPRH); 35 g/ha
  pest or weed control at 35 g/ha: 100%
Common poppy (PAPRH); 70 g/ha
  pest or weed control at 70 g/ha: 100%
